Measurements from ChEMBL document CHEMBL1201862, “PubChem BioAssay data set” (2004).
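Each compound was tested at five concentrations against cells in 96-well plates for 48 hours. At the GI50, growth is halved.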 Active and inactive are the calls of the source. No stated cut-off is given here; in the data, active = GI50 up to about 1.1 µM and inactive = higher.

Columns and labels:
Test in all cases: growth of human tumour cells (NCI), 48 h
[1] = tested on: A498
[2] = tested on: ACHN
[3] = tested on: HOP-18
[4] = tested on: LXFL 529
[5] = tested on: RXF 631
[6] = tested on: SK-MEL-5
[7] = tested on: SNB-78
[8] = tested on: 786-0
[9] = tested on: T47D

Measured: GI50

CC1C[C@]2(C[C@@H](C)C(=O)O2)OC2CC3(C)C4CCC5C(C)(C)OC(=O)CC[C@@]56C[C@@]46CC[C@]3(C)C12 (some centres not stated)
inactive: [1] > 100 µM | [2] > 100 µM | [3] > 100 µM | [4] > 100 µM | [5] > 100 µM | [6] > 100 µM | [7] > 100 µM

Nc1nn(CC(O)CO)c(=O)s1 (configuration not stated)
inactive: [1] > 100 µM | [2] > 100 µM | [3] > 100 µM | [4] > 100 µM | [5] > 100 µM | [6] > 100 µM

COc1ccc(Sc2ccccc2N)cc1
inactive: [1] > 100 µM | [2] 56.8 µM | [3] > 100 µM | [4] 41 µM | [6] 22.3 µM | [7] 37.8 µM

COc1cc(/C=C/C2=C(C#N)C(=O)OC2(C)C)ccc1O
inactive: [1] > 100 µM | [2] 34.2 µM | [3] > 100 µM | [5] 93.1 µM | [6] > 100 µM | [7] > 100 µM

N/C(=N\O)N/N=C\c1cc([N+](=O)[O-])cc([N+](=O)[O-])c1O
inactive: [1] > 23.2 µM | [3] > 100 µM | [6] 9.42 µM | [7] > 100 µM

N#C/C(=C\c1cccc(O)c1O)C(N)=O
inactive: [8] 33.3 µM | [1] 74.3 µM | [2] 26.6 µM | [4] 50.6 µM | [5] 48.8 µM | [7] 52 µM

O=c1cnn(C2OC(CO)C(O)C2O)c(=S)[nH]1 (configuration not stated)
inactive: [1] > 100 µM | [3] > 79.1 µM | [4] 11.5 µM | [5] 14.3 µM | [6] > 55.5 µM | [7] > 91.2 µM | [9] > 100 µM

ClCc1nnc2n1-c1ccc(Cl)cc1SC2
inactive: [1] 4.03 µM | [3] 2.92 µM | [6] 2.62 µM | [7] 5.4 µM

C/C([O-])=C(/c1nc(-c2ccc([N+](=O)[O-])o2)no1)[n+]1cc(C)ccc1C
inactive: [1] 18.3 µM | [3] 10.2 µM | [6] 10.6 µM | [7] 20.7 µM

Nc1nnc(N)n1NC(=O)C(=O)Nc1ccc([N+](=O)[O-])cc1
inactive: [1] > 100 µM | [2] > 100 µM | [3] > 100 µM | [5] > 100 µM | [6] > 100 µM | [7] > 100 µM

Cc1c(N=NN(C)C)cc[n+]([O-])c1C
inactive: [1] > 100 µM | [3] > 100 µM | [6] > 100 µM | [7] > 100 µM

CCCCOP1(=O)C=CC(Cl)=C(C)C1 (configuration not stated)
inactive: [8] 22.3 µM | [2] 19 µM | [3] 44.5 µM | [4] 27.9 µM | [5] 29.1 µM

CCCNC(/C=C/[Si](C)(C)C)CO.CCCNCC(O)/C=C/[Si](C)(C)C (configuration not stated)
inactive: [1] > 100 µM | [2] > 100 µM | [3] > 100 µM | [4] > 100 µM | [5] > 100 µM | [6] > 100 µM | [7] > 100 µM
